Measurements as given in US6926763B2, “Purine and isosteric antibacterial compounds” (GLSynthesis, Inc., priority 2002, dated 2005).
Converted amounts (≈) assume the structure as drawn. Like-named read-outs stand apart in the source and are kept apart here.

What was measured:
B.s. pol IIIC = B.s. pol IIIC (Bacillus subtilis, UniProt P13267); assay: biochemical; assay type: biochemical
Procedure: (§1) The ability of a test compound to inhibit the activity of DNA pol IIIC or pol IIIE enzymes can be tested by using a DNA polymerase assay as described, for example, in Barnes and Brown, Nucl. […] This rapid screening method can use natural or recombinant DNA pol III enzymes in a standard DNA polymerase activity assay. By including a test compound in a side-by-side assay with a control, the effect of the test compound on polymerase activity can be assessed.
(§2) DNA pol III activity was assayed as described in Barnes et al., Nucl.
(§3) Purified pol IIIC or pol IIIE was added to a buffered solution containing Mg^2+, DTT, glycerol, nicked calf thymus DNA, saturating concentrations of dATP, dCTP, dTTP and [^3H]-dTTP. Reaction mixtures were incubated at 30° C. for 10 min, quenched and filtered, and radioactivity in the acid-insoluble material measured by scintillation counting. Experiments were done in triplicate. Inhibitors were assayed by addition of several dilutions of a stock solution of inhibitor (DMSO or water, depending on solubility) before enzyme addition. […] The truncated assay, i.e., exclusion of the competitive substrate dGTP allows for the direct determination of apparent inhibitor constants (Ki) in this assay system.

B.s. pol IIIE = B.s. pol IIIE (Bacillus subtilis, UniProt O34623); assay: biochemical; assay type: biochemical
Procedure: as §1, §2, §3

E.c. pol IIIE = E.c. pol IIIE (Escherichia coli, UniProt P10443); assay: biochemical
Procedure: as §1, §2, §3

[1] = tested on: vancomycin-resistant E. fecium; assay: Inhibition of bacterial growth (agar plate MIC), VRE; assay type: cell-based, Enterococcus fecium; details: agar plates, 37° C., 24 hours; for MIC: Enterococcus, VRE
Procedure: (§4) Antimicrobial efficacy may be determined by standard methods of microbial culture in growth medium or on plates of agar supplemented with appropriate growth media. For example, microbes, e.g., mycoplasmata or Gram-positive or Gram-negative bacteria, are grown in the presence of serial dilutions of compounds in an appropriate vehicle, and, after a suitable period of growth, the microbial density is measured by visual or instrumental means. The concentration of compound at which no growth occurs is the minimum inhibitory concentration (MIC) of the compound. Test compounds with an appropriate level of growth inhibition are good candidate therapeutics for further evaluation.
(§5) Each compound was assayed against a panel of Gram-positive Bacilli, Enterococci, and Staphylococci, and Gram-negative Escherichia coli, grown in appropriate plate media solidified with 1.3% agar-agar. […] One tenth mL of diluted bacteria containing 500-1000 colony-forming units (CFU) were plated and spread, and the plates were incubated at 37° C. for 24 hours. MIC (minimum inhibitory concentration) was equivalent to the lowest concentration at which growth, i.e. colony formation, was not observed.

Bacillus subtilis = assay: Inhibition of bacterial growth (agar plate MIC), B.s.; assay type: cell-based; details: agar plates, 37° C., 24 hours; for MIC: Bacillus subtilis
Procedure: as §4, §5

Staphylococcus aureus = assay: Inhibition of bacterial growth (agar plate MIC), S.a.; assay type: cell-based; details: agar plates, 37° C., 24 hours; for MIC: Staphylococcus aureus
Procedure: as §4, §5

S.a. (Smith) = assay: Inhibition of bacterial growth (agar plate MIC), S.a. (Smith); assay type: cell-based, Staphylococcus aureus; details: agar plates, 37° C., 24 hours; for MIC: Staphylococcus aureus
Procedure: as §4, §5

Enterococcus fecalis = assay: Inhibition of bacterial growth (agar plate MIC), E. fecalis; assay type: cell-based; details: agar plates, 37° C., 24 hours; for MIC: Enterococcus
Procedure: as §4, §5

Enterococcus fecium = assay: Inhibition of bacterial growth (agar plate MIC), E. fecium; assay type: cell-based; details: agar plates, 37° C., 24 hours; for MIC: Enterococcus
Procedure: as §4, §5

MRSA (B42876) = assay: Inhibition of bacterial growth (agar plate MIC), MRSA (B42876); assay type: cell-based, methicillin-resistant S.a.; details: agar plates, 37° C., 24 hours; for MIC: Staphylococcus aureus, MRSA
Procedure: as §4, §5

in vitro = in vitro ADME; details: human, Caco-2
Excerpt: Table 2 summarizes the results of cell membrane permeability assays of representative compounds of the invention. The assay utilizes CaCo2 cell culture monolayers, described by Artursson and Kalsson, Biochem. Biophys. Res.

[2] = truncated assay without dGTP, apparent Ki, read-out: Ki, B.s. pol IIIC
[3] = truncated assay without dGTP, apparent Ki, read-out: Ki, B.s. pol IIIE

Sequence of E.c. pol IIIE (P10443 whole entry): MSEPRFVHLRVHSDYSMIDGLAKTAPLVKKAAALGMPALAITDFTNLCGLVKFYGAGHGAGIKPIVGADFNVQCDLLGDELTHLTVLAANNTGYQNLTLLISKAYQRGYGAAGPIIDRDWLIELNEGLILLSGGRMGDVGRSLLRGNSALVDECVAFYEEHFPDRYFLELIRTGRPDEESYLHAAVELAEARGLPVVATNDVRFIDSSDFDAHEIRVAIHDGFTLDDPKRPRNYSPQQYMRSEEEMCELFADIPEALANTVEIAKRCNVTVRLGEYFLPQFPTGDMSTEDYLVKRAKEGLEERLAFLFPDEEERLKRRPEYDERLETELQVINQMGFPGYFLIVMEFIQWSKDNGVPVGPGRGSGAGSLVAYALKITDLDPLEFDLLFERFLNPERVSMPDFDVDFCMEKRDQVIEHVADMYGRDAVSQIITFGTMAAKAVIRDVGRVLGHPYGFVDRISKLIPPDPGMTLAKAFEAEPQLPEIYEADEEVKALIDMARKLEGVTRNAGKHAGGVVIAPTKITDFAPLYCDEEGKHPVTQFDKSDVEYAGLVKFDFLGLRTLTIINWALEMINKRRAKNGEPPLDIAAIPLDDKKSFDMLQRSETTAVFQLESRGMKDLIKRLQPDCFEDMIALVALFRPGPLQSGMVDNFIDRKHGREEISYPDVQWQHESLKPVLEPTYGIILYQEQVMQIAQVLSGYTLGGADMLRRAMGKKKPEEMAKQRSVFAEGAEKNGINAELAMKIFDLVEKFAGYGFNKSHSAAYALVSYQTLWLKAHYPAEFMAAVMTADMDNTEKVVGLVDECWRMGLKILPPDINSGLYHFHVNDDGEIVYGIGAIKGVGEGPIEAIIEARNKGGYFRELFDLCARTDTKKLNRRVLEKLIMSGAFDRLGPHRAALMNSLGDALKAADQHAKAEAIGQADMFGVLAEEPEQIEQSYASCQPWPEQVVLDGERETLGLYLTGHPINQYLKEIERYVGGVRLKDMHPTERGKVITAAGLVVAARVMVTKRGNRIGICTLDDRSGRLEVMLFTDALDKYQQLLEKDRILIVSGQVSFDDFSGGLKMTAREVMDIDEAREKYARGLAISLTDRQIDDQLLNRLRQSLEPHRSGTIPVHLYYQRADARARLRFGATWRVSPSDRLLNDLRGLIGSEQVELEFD
Sequence of B.s. pol IIIE (O34623 whole entry): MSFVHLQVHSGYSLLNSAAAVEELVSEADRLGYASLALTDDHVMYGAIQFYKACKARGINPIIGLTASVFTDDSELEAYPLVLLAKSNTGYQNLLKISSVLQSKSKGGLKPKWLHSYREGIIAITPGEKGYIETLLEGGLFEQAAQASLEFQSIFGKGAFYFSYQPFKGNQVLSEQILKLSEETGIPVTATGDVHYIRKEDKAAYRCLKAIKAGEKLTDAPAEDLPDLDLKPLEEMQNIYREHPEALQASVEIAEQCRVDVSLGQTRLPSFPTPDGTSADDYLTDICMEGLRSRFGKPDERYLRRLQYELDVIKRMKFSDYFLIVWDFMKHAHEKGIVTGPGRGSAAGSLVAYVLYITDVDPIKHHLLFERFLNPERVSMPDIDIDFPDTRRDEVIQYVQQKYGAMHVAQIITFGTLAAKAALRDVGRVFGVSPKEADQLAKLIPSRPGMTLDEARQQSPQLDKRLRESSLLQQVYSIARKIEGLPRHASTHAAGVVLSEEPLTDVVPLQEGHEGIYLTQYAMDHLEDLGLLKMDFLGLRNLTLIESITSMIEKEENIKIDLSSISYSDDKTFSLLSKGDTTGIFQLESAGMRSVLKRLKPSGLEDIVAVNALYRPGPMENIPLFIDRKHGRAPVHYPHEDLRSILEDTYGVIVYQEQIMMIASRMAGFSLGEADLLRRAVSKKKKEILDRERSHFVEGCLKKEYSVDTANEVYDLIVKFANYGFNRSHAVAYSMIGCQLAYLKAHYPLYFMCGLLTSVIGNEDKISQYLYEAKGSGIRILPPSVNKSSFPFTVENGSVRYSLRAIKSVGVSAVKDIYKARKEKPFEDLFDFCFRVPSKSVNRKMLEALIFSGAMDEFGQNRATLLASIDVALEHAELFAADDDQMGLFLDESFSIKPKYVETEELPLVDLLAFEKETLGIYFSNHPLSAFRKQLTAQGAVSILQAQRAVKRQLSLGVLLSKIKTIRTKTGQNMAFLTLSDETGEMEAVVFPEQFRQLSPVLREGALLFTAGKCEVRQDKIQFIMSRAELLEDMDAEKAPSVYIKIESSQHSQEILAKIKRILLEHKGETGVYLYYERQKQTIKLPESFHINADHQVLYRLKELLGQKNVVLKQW
Sequence of B.s. pol IIIC (P13267 whole entry): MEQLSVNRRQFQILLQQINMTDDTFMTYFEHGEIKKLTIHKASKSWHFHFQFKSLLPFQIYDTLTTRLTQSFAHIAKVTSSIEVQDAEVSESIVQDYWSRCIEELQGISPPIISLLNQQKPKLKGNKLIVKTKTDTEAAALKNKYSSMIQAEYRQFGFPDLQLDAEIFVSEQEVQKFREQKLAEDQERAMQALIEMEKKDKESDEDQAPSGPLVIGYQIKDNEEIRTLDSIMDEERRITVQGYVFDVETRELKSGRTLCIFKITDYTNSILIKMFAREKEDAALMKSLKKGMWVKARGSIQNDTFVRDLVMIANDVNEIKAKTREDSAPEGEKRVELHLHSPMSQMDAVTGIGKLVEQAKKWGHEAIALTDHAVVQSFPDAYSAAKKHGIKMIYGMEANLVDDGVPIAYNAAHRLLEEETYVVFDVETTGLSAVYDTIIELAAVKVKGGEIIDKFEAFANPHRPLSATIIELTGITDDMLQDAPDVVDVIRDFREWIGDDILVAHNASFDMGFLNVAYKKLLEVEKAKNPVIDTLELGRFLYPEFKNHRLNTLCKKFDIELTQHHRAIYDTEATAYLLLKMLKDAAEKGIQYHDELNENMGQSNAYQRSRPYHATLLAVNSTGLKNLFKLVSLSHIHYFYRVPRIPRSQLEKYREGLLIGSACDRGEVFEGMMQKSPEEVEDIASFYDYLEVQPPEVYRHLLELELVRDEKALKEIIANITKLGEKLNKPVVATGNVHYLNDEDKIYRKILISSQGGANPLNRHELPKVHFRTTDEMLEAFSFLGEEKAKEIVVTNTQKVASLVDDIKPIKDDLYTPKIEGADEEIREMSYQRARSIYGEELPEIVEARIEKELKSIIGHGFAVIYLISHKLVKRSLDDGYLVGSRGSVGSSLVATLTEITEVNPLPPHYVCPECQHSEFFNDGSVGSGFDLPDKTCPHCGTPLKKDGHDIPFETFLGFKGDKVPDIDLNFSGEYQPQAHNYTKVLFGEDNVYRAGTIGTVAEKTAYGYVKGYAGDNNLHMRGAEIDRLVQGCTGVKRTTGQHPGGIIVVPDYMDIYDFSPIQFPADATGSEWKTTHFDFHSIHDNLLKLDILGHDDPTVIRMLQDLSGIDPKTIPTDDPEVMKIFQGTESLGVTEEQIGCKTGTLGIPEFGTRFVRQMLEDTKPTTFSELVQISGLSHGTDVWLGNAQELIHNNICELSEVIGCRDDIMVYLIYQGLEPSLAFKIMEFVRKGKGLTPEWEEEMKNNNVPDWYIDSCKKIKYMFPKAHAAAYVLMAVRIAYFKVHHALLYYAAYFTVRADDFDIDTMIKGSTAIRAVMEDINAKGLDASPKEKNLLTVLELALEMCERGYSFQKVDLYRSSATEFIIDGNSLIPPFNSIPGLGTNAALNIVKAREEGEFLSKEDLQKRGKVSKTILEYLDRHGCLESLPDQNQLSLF

| SMILES | Ki (B.s. pol IIIC; [2]) [nM] | Ki (B.s. pol IIIE; [3]) [nM] | MIC, VRE [1] [µg/mL] | MIC, B.s. (Bacillus subtilis) [µg/mL] | MIC, S.a. (Staphylococcus aureus) [µg/mL] | MIC, S.a. (Smith) (S.a. (Smith)) [µg/mL] | MIC, E. fecalis (Enterococcus fecalis) [µg/mL] | MIC, E. fecium (Enterococcus fecium) [µg/mL] | MIC, MRSA (B42876) (MRSA (B42876)) [µg/mL] | MIC (Bacillus subtilis) [µg/mL] | MIC (S.a. (Smith)) [µg/mL] | MIC (Enterococcus fecalis) [µg/mL] | MIC (Enterococcus fecium) [µg/mL] | MIC (Staphylococcus aureus) [µg/mL] | MIC (MRSA (B42876)) [µg/mL] | other results |
| --- | --- | --- | --- | --- | --- | --- | --- | --- | --- | --- | --- | --- | --- | --- | --- | --- |
| O=c1[nH]c(NCc2ccc(Cl)c(Cl)c2)cc2[nH]cnc12 [Compound 1, 2-(3,4-Dichlorobenzylamino)-6-oxo-3-deazapurine] | 2200 | 2500 | 40 (≈ 129 µM) | 40 (≈ 129 µM) | 80 (≈ 259 µM) | 80 (≈ 259 µM) | 80 (≈ 259 µM) | 40 (≈ 129 µM) | 80 (≈ 259 µM) |  |  |  |  |  |  | Ki (E.c. pol IIIE; truncated assay without dGTP, apparent Ki, read-out: Ki, E.c. pol IIIE): 176 µM |
| COCCCCn1cnc2cc(NCc3ccc(Cl)c(Cl)c3)[nH]c(=O)c21 [Compound 2, 2-(3,4-Dichlorobenzylamino)-6-oxo-7-(4-methoxybutyl)-3-deazapurine] |  |  |  |  |  |  |  |  |  | 0.625 (≈ 1.58 µM) | 3.75 (≈ 9.49 µM) | 5 (≈ 12.6 µM) | 5 (≈ 12.6 µM) |  |  | Ki (B.s. pol IIIC): 190 nM; Ki (B.s. pol IIIE): 370 nM; Ki (E.c. pol IIIE): 56 µM |
| O=c1[nH]c(NCc2ccc(Cl)c(Cl)c2)cc2ncn(CCCCN3CCOCC3)c12 [Compound 4, 2-(3,4-Dichlorobenzylamino)-6-oxo-7-(4-morpholinylbutyl)-3-deazapurine] | 94 | 200 | 10 (≈ 22.2 µM) | 7.5 (≈ 16.7 µM) | 20 (≈ 44.4 µM) | 10 (≈ 22.2 µM) | 20 (≈ 44.4 µM) | 15 (≈ 33.3 µM) | 20 (≈ 44.4 µM) |  |  |  |  |  |  |  |
| O=c1[nH]c(NCc2ccc(Cl)c(Cl)c2)cc2ncn(CCCCCN3CCOCC3)c12 [Compound 5, 2-(3,4-Dichlorobenzylamino)-6-oxo-7-(5-morpholinylpentyl)-3-deazapurine] | 100 | 290 | 15 (≈ 32.3 µM) | 10 (≈ 21.5 µM) | 20 (≈ 43.1 µM) | 20 (≈ 43.1 µM) | 20 (≈ 43.1 µM) | 20 (≈ 43.1 µM) | 20 (≈ 43.1 µM) |  |  |  |  |  |  |  |
| COCCCCn1c(C)nc2cc(NCc3ccc(Cl)c(Cl)c3)[nH]c(=O)c21 [Compound 6, 2-(3,4-Dichlorobenzylamino)-6-oxo-7-(4-methoxybutyl)-8-methyl-3-deazapurine] |  |  |  |  |  |  |  |  |  | 2.5 (≈ 6.11 µM) | 7.5 (≈ 18.3 µM) | 10 (≈ 24.4 µM) | 10 (≈ 24.4 µM) | 10 (≈ 24.4 µM) | 7.5 (≈ 18.3 µM) | Ki (B.s. pol IIIC): 1250 nM; Ki (B.s. pol IIIE): 2500 nM; Ki (E.c. pol IIIE): 426 µM; MIC [1]: 10 µg/mL (≈ 24.4 µM) |
| CC(=O)OCCCCn1cnc2nc(NCc3ccc(Cl)c(Cl)c3)[nH]c(=O)c21 [Compound 7, 7-(4-Acetoxybutyl)-2-(3,4-dichlorobenzylamino)-6-oxopurine] | 66 |  |  |  |  |  |  |  |  | 5 (≈ 11.8 µM) | 2.5 (≈ 5.89 µM) | 2.5 (≈ 5.89 µM) | 2.5 (≈ 5.89 µM) | 5 (≈ 11.8 µM) | 2.5 (≈ 5.89 µM) | MIC [1]: 5 µg/mL (≈ 11.8 µM) |
| O=c1[nH]c(NCc2ccc(Cl)c(Cl)c2)nc2ncn(CCCCO)c12 [Compound 8, 7-(4-Hydroxybutyl)-2-(3,4-dichlorobenzylamino)-6-oxopurine] | 190 |  |  |  |  |  |  |  |  | 15 (≈ 39.2 µM) | 25 (≈ 65.4 µM) | 10 (≈ 26.2 µM) | 7.5 (≈ 19.6 µM) |  | 30 (≈ 78.5 µM) |  |
| O=c1[nH]c(NCc2ccc(Cl)c(Cl)c2)nc2ncn(CCCCN3CCOCC3)c12 [Compound 10, 7-[4-(N-Morpholinyl)butyl]-2-(3,4-dichlorobenzylamino)-6-oxopurine] | 51 |  |  |  |  |  |  |  |  |  |  | 10 (≈ 22.2 µM) | 10 (≈ 22.2 µM) | 20 (≈ 44.3 µM) |  | Papp (in vitro): 0.01 ×10⁻⁶ cm/s |
| CC(=O)OCCCCCn1cnc2nc(NCc3ccc(Cl)c(Cl)c3)[nH]c(=O)c21 [Compound 11, 7-(5-Acetoxypentyl)-2-(3,4-dichlorobenzylamino)-6-oxopurine] | 52 |  |  |  |  |  |  |  |  |  |  | 1.25 (≈ 2.85 µM) | 1.25 (≈ 2.85 µM) | 2.5 (≈ 5.7 µM) |  |  |
| O=c1[nH]c(NCc2ccc(Cl)c(Cl)c2)nc2ncn(CCCCCO)c12 [Compound 12, 7-(5-Hydroxypentyl)-2-(3,4-dichlorobenzylamino)-6-oxopurine] | 52 |  |  |  |  |  |  |  |  |  |  | 5 (≈ 12.6 µM) | 10 (≈ 25.2 µM) | 20 (≈ 50.5 µM) |  |  |
